# Reference: patent US20100216994A1, “USE OF NOVEL COMPOUND HAVING AFFINITY FOR AMYLOID, AND PROCESS FOR PRODUCTION OF THE SAME” (NIHON MEDI-PHYSICS CO., LTD., priority 2007, published 2010)
# Tests used:
# [1] = Transferability into brain and clearance (radioactive accumulation in brain after intravenous injection); conditions: rats
# Description: Using [^123I]-2-(4′-iodophenyl)-6-methoxyimidazo[1,2-a]pyridine and [^123I]-2-(4′-fluorophenyl)-6-iodoimidazo[1,2-a]pyridine, a time course change of radioactive accumulation in brain of male Wistar rats (7-week old) was measured.
# The rats were sacrificed by bleeding from abdominal artery, and brains were removed and subjected to measurement of mass of brains (hereinafter referred to as A in this Example) and further subjected to measurement of radioactivity with a single channel analyzer (detector type: SP-20 manufactured by OHYO KOKEN KOGYO Co., Ltd.) 2, 5, 30 and 60 minutes after the injection. Also, radioactivity (hereinafter referred to as B in this Example) of the rest of the whole body was measured in the same manner as above.
# The same procedures as above was conducted and subjected to the same procedures as above to calculate radioactive accumulation per unit weight of a brain (% ID/g) at the respective time points were calculated.
# Three animals were used for Example 15, Example 16 and Comparative Example 2 at the respective time points.
# [2] = target: T1, intracerebral amyloid (aggregated Aβ1-42) (Homo sapiens, UniProt P05067); experiment: Confirmation of imaging of amyloid in brain (autoradiogram of brain slice, amyloid injected into amygdaloid nucleus); format: in vivo, male Wistar rat; conditions: rat, tail vein injection, brain removed 60 minutes after injection
# T1 construct: Aβ1-42 (Wako) was dissolved in phosphate buffer (pH 7.4); purchased Wako
# T1 sequence (P05067 672-713): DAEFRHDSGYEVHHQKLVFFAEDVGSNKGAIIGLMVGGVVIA
# Description: (§1) The following experiment was carried out in order to examine whether amyloid in brain can be imaged by the compound of the present invention.
# (§2) (1) Aβ1-42 (Wako) was dissolved in phosphate buffer (pH 7.4) and shaken at 37° C. for 72 hours, to obtain a 1 mg/mL suspension of aggregated Aβ (hereinafter referred to as amyloid suspension in this Example).
# (§3) (2) Under thiopental anesthesia, […] of the amyloid suspension was injected into an amygdaloid nucleus on one side of a male Wistar rat (7-week old). As a control, 2.5 μL of a phosphate buffered physiological saline solution (pH 7.4) was injected into an amygdaloid nucleus on the other side of the rat. The rats were examined 1 day after the injection of the amyloid suspension and the phosphate buffered physiological saline solution (pH 7.4).
# (§4) This sample solution was injected under thiopental anesthesia into the rat through the tail vein (dosage: 0.5 mL, dosed radioactivity: 16 MBq equivalent).
# (§5) (4) Brain was removed 60 minutes after the injection to prepare a brain slice of 10 μm in thickness with a microtome (type: CM3050S, manufactured by LEICA). The brain slice was exposed to an imaging plate for 20 hours, and then image analysis was carried out by use of a Bio-imaging Analyzer (type: BAS-2500; manufactured by FUJIFILM Corporation).
# [3] = test system: intracerebral amyloid (aggregated Aβ1-42); experiment: as above; format: in vivo, male Wistar rat; conditions: rat, tail vein injection, brain removed 60 minutes after injection
# Description: as §1, §2, §3, §4, §5
# [4] = Partition coefficient based on the octanol extraction method (logPoctanol); conditions: octanol / 10 mmol/L phosphate buffer (pH 7.4)
# Description: 10 μL each of the prepared sample solution was respectively added to 2 mL of octanol, further, 2 mL of 10 mmol/L phosphate buffer (pH 7.4) was added, and stirred for 30 seconds. After the mixture was centrifuged with a low-speed centrifuge (2000 rpm×60 min.), the octanol layer and the water layer were sampled each in an amount of 1 mL, and subjected to measurement of radioactivity count with an autowell gamma system (Type: ARC-301B, manufactured by Aloka). Using the obtained radioactivity count, logPoctanol was calculated in accordance with the equation (2).
# [5] = [^125I]-labeled compounds, normal mice, brain; cited from earlier work
Compound,Radioactive accumulation per unit weight in brain ([1]; after 2 min.),Radioactive accumulation per unit weight in brain ([1]; after 5 min.),Radioactive accumulation per unit weight in brain ([1]; after 30 min.),Radioactive accumulation per unit weight in brain ([1]; after 60 min.),accumulation of radioactivity in amygdaloid nucleus on the side to which the amyloid suspension was injected [2],accumulation of radioactivity in amygdaloid nucleus on the side to which the physiological saline solution was injected [3],logPoctanol value [4],clearance from normal tissues [5]
"Fc1ccc(-c2cn3cc([123I])ccc3n2)cc1 [[^123I]-2-(4′-fluorophenyl)-6-iodoimidazo[1,2-a]pyridine]",1.00 % ID/g,0.72 % ID/g,0.12 % ID/g,0.05 % ID/g,marked accumulation of radioactivity,no significant accumulation of radioactivity,2.3,
"CN(C)c1ccc(-c2cn3cc([123I])ccc3n2)cc1 [[^123I]-IMPY, reference compound]",1.19 % ID/g,0.97 % ID/g,0.23 % ID/g,0.09 % ID/g,,,1.9,
"COc1ccc(-c2cn3cc([123I])ccc3n2)cc1 [[^123I]-6-iodo-2-(4′-methoxyphenyl)imidazo[1,2-a]pyridine]",1.04 % ID/g,0.72 % ID/g,0.12 % ID/g,0.04 % ID/g,marked accumulation of radioactivity,no significant accumulation of radioactivity,1.7,
"CN(C)c1ccc(/C=C/c2ccc(I)cc2)cc1 [m-I-SB, (E)-4-dimethylamino-4′-iodostilbene]",,,,,,,,insufficient in clearance from normal tissues
